Assay results taken from US20060029690A1, “Buckwheat compound and method of obtaining the same for treatment of hyperglycemia” (priority 2004, published 2006).
Read-outs that look alike come from different tables or passages of the source.

What was measured:
alloxan diabetic mice [1] = assay: Blood glucose level of alloxan diabetic mice at day 7 and 14; type: in vivo; settings: metformin 200 mg/kg
Description: (§1) The animals were made diabetic by a single intravenous injection of 70 mg/kg alloxan into the tail vein. After a period of 4 days, the treated mice were fasted for 2 hours, then the blood sample was taken from the treated mice intravenously. The blood glucose concentration was determined using Glucose Oxidase Peroxidase method. The mice with the blood glucose concentration above 200 mg/dl were marked diabetic mice and were used for further experiments.
(§2) The mice were divided into 5 groups, each group having 9 mice.
(§3) Group 5 received reagent (3) at the dose of 5 g/kg (p.o.).
(§4) At day 7 and 14, measurements of blood glucose concentration were taken after fasting for 2.5 and 5 hours. The change of glucose concentration by percentage was compared against the control group. Blood triglyceride and cholesterol concentrations were tested at day 14 (enzymatic method). Glucose tolerance test (2.0 g/kg, p.o.) was conducted at day 19. First, the mice were fasted for half an hour before the administration of control and test substances. Two and half hours later, the mice received glucose at the dose of 2 g/kg, po. Blood samples were taken at 0, 30, 60, 120 minutes after administration of the glucose. Blood glucose concentration (mg/dl) of the mice were determined and the related measurements of Area Under the Curve (AUC) were estimated. The serum superoxide dismutase (SOD) level of blood samples taken at 0 minute was tested. Glucose tolerance test was conducted again at day 22. The mice were fasted for 1 hour before administration. One and half hour after administration, the mice received glucose at the dose of 2 g/kg, po Blood samples were taken at 0, 30 60, 120 minutes.

alloxan diabetic mice [2] = assay: Blood lipid level (cholesterol, triglyceride) of alloxan diabetic mice at day 14; type: in vivo; settings: metformin 200 mg/kg, others 5000 mg/kg
Description: as §1, §2, §3
as §4, with “The serum superoxide dismutase (SOD) level of blood samples taken at 0 minute was tested. Glucose tolerance test was conducted again at day 22. The mice were fasted for 1 hour before administration. One and half hour after administration, the mice received glucose at the dose of 2 g/kg, po Blood samples were taken at 0, 30 60, 120 minutes.” left out

alloxan diabetic mice [3] = assay: Serum SOD level of alloxan diabetic mice at day 19; type: in vivo; settings: metformin 200 mg/kg, others 5000 mg/kg
Description: as §1, §2, §3
as §4, with “The serum superoxide dismutase (SOD) level of blood samples taken at 0 minute was tested. Glucose tolerance test was conducted again at day 22. The mice were fasted for 1 hour before administration. One and half hour after administration, the mice received glucose at the dose of 2 g/kg, po Blood samples were taken at 0, 30 60, 120 minutes.” left out

alloxan diabetic mice [4] = assay: Glucose tolerance test and AUC in alloxan diabetic mice (day 19 and day 22); type: in vivo; settings: for Blood glucose, glucose tolerance test, 0 min: metformin 200 mg/kg, others 5 g/kg
Description: as §1, §2, §3, §4

STZ diabetic rats [5] = assay: Fasting blood glucose concentration in STZ diabetic rats after 7 days (Example 1); type: in vivo, rat; settings: oral administration for 7 days, metformin 0.2 g/kg, extracts 5.0 g/kg
Description: (§5) The treatments were administered once every day.
At day 7, the rats in groups 1, 2 and 3 were fasted and blood samples were taken at 2.5 hours and 5 hours after fasting began. Blood glucose concentrations (mg/dl) in these samples were then determined.

STZ diabetic rats [6] = assay: Non-fasting blood glucose, serum SOD activity and catalase (CAT) activity in STZ diabetic rats at day 19; type: in vivo, rat; settings: oral administration for 19 days
Description: as §5
At day 19, blood samples were taken, and blood glucose concentrations without fasting, the activities of SOD and catalase (CAT) levels were determined.

STZ diabetic rats [7] = assay: Oral glucose tolerance test in STZ diabetic rats after 12 days (Example 2); type: in vivo, rat; settings: 12 days oral, dosage 0.2 g/kg
Description: […] were divided according to the blood glucose concentration under fasting conditions.
The STZ diabetic rats were divided into 4 groups, each group having 10 rats.
At day 12, oral glucose tolerance tests (2.0 g/kg) were conducted. […] 1 hour later, the rats received glucose at the dose of 2 g/kg (p.o.). Blood samples were taken at 0, 30 and 120 min respectively.

STZ diabetic rats [8] = settings: 7 days oral, dosage 0.2 g/kg
Description: The mice were divided according to the blood glucose concentration under fasting conditions. The difference between the average blood glucose concentrations of the 4 groups of rats was less than 10 mg/dl.
At day 7, fasting blood glucose concentration was tested after 2.5 and 5 hours of fasting. The change of glucose concentration by percentage was compared against the control group.

[9] = Body weight of STZ diabetic rats after 9, 14 and 21 days; settings: STZ diabetic rat; metformin 0.2 g/kg, flavonoids 4.0 g/kg, extracts 5.0 g/kg
Description: (§6) Male rats (Sprague-Dwaley, male), weighing 120 to 140 g, were purchased from VTLF Experiment Animal Technology Center Company Ltd., Beijing P. R. China The animals were made diabetic by a single intraperitoneal injection of streptozocin (freshly prepared in 0.1 M citrate buffer (pH 4.5) at the dose of 58 mg/kg). After a period of 4 days, the treated rats were fasted for 2.5 hours, then blood samples were taken from the treated rats intravenously. Blood glucose concentrations were determined using the Glucose Oxidase Peroxidase method. The rats with blood glucose concentrations above 190 mg/dl were marked as diabetic rats and used for further experiments.
(§7) The rats were divided into 6 groups of 10 rats per group. The difference in the average blood glucose concentrations among the 6 groups was less than 10 mg/dl. Group 1 served as the negative control and received water. […] The remaining four groups received reagents (1) to (4) as listed in Section 1.3.1 above. Reagents (1) and (2) were administered at a dose of 4 g/kg, while (3) and (4) were administered at a dose of 5 g/kg. The treatments were administered once every day.

STZ diabetic rats [10] = assay: Glucose tolerance test and AUC in STZ diabetic rats (day 14 and day 21)
Description: as §6, §7
At day 14, glucose tolerance tests were conducted. The rats were fasted for 1 hour before receiving the reagents at dosages of 2.0 g/kg (p.o.). Blood samples were taken at 0, 30, 60, and 120 min after receiving the reagents. Blood glucose concentrations (mg/dl) were determined and the related AUC were calculated.
At day 21, glucose tolerance tests were conducted. The rats were fasted for 1 hour, then received their respective reagents at the dose of 5 g/kg (p.o.). 2.5 hours after administration of reagent the rats received glucose at a dose of 2 g/kg (p.o.). Blood samples were taken at 0, 30, and 120 minutes after glucose administration. Blood glucose concentrations (mg/dl) were determined and the related AUC were calculated.

[11] = day 19, glucose 2 g/kg p.o. 2.5 h after administration
[12] = day 22, glucose 2 g/kg p.o. 1.5 h after administration
[13] = oral administration for 14 days
[14] = oral administration for 21 days

For `CN(C)C(=N)N=C(N)N` [Metformin, metformin], the “effective in lowering blood glucose concentration in alloxan diabetic mice (in words)” value (alloxan diabetic mice [1]; continuously for 7 and 14 days, extracts 5 g/kg) was “significant glucose-lowering effect”, the “Blood glucose concentration at day 7, 2.5 hr after administering” value (alloxan diabetic mice [1]; day 7, 2.5 hr, p.o. once daily, extracts and flavonoid B 5000 mg/kg) was 216.8 ± 78.2 mg/dL and the “Blood glucose concentration at day 7, 5 hr after administering” value (alloxan diabetic mice [1]; day 7, 5 hr, p.o. once daily, others 5000 mg/kg) was 182.8 ± 88.1 mg/dL. The “Blood glucose concentration at day 14, 2.5 hr after administering” value (alloxan diabetic mice [1]; day 14, 2.5 hr, p.o. once daily, others 5000 mg/kg) was 281.5 ± 60.9 mg/dL, the “Blood glucose concentration at day 14, 5 hr after administering” value (alloxan diabetic mice [1]; day 14, 5 hr, p.o. once daily, others 5000 mg/kg) was 221.7 ± 65.9 mg/dL and the “blood glucose change by percentage, day 7, 2.5 hr” value (alloxan diabetic mice [1]; versus control group, day 7, 2.5 hr, others 5000 mg/kg) was 34%. For the same compound, the “blood glucose change by percentage, day 7, 5 hr” value (alloxan diabetic mice [1]; versus control group, day 7, 5 hr, others 5000 mg/kg) was 32.4%, the “blood glucose change by percentage, day 14, 2.5 hr” value (alloxan diabetic mice [1]; versus control group, day 14, 2.5 hr, others 5000 mg/kg) was 21.2% and the “blood glucose change by percentage, day 14, 5 hr” value (alloxan diabetic mice [1]; versus control group, day 14, 5 hr, others 5000 mg/kg) was 21.3%. For the same compound, the Blood cholesterol (alloxan diabetic mice [2]) was 159.8 ± 48.7 mg/dL, the Blood triglyceride (alloxan diabetic mice [2]) was 132.8 ± 34.2 mg/dL and the “Serum SOD” value (alloxan diabetic mice [3]) was 78.3 ± 26.5 u/mg. The “Blood glucose, glucose tolerance test, 30 min” value (alloxan diabetic mice [4]; [11]) was 544.4 ± 45.3 mg/dL, the “Blood glucose, glucose tolerance test, 60 min” value (alloxan diabetic mice [4]; [11]) was 512.0 ± 76.9 mg/dL and the “Blood glucose, glucose tolerance test, 120 min” value (alloxan diabetic mice [4]; [11]) was 408.4 ± 71.3 mg/dL. The “Blood glucose, glucose tolerance test, 0 min” value (alloxan diabetic mice [4]; [11]) was 346.8 ± 68.3 mg/dL, the “Blood glucose, glucose tolerance test, 30 min” value (alloxan diabetic mice [4]; [12]) was 474.5 ± 74.4 mg/dL and the “Blood glucose, glucose tolerance test, 60 min” value (alloxan diabetic mice [4]; [12]) was 450.7 ± 80.1 mg/dL. The “Blood glucose, glucose tolerance test, 120 min” value (alloxan diabetic mice [4]; [12]) was 358.6 ± 88.3 mg/dL, the “Blood glucose, glucose tolerance test, 0 min” value (alloxan diabetic mice [4]; [12]) was 377.6 ± 87.6 mg/dL and the “Fasting blood glucose concentration, 5.0 hr.” value (STZ diabetic rats [5]; flavonoids 4.0 g/kg) was 185.6 ± 78.8 mg/dL. The “fasting blood glucose concentration, 2.5 hr.” value (STZ diabetic rats [5]; flavonoids A and B 4.0 g/kg) was 261.1 ± 45.7 mg/dL, the CAT activity (STZ diabetic rats [6]) was 64.6 ± 12.5 U/gHb and the “Serum SOD activity” value (STZ diabetic rats [6]) was 164.8 ± 16.9 NU/ml. For the same compound, the “Non-fasting blood glucose concentration” value (STZ diabetic rats [6]; metformin 0.2 g/kg, flavonoids 4.0 g/kg, extracts 5.0 g/kg) was 340.5 ± 40.7 mg/dL, the AUC (STZ diabetic rats [7]) was 800.9 ± 103.2 mg·h/dL and the “Fasting blood glucose concentration, oral glucose tolerance, 0 min” value (STZ diabetic rats [7]) was 398.4 ± 36.6 mg/dL. For the same compound, the “Fasting blood glucose concentration, oral glucose tolerance, 30 min” value (STZ diabetic rats [7]) was 458.4 ± 59.7 mg/dL, the “Fasting blood glucose concentration, oral glucose tolerance, 120 min” value (STZ diabetic rats [7]) was 323.9 ± 51.2 mg/dL and the “reduction of AUC by percentage” value (STZ diabetic rats [7]; versus control) was “(14.2) %”. The “fasting blood glucose concentration, 2.5 hr.” value (STZ diabetic rats [8]) was 357.2 ± 51.5 mg/dL, the “fasting blood glucose concentration, 5 hr.” value (STZ diabetic rats [8]) was 288.9 ± 68.8 mg/dL and the “reduction of blood glucose concentration by percentage, 2.5 hr.” value (STZ diabetic rats [8]; versus control) was “(11.7) %”. For the same compound, the “reduction of blood glucose concentration by percentage, 5 hr.” value (STZ diabetic rats [8]; versus control) was “(22.5) %”, the “weight at day 9” value [9] was 203.3 ± 22.3 g and the “weight at day 14” value [9] was 200.4 ± 29.4 g. For the same compound, the “AUC of blood glucose” value (STZ diabetic rats [10]; [13]) was 652.5 ± 133.8 mg·h/dL, the “blood glucose concentration, glucose tolerance test, 30 min” value (STZ diabetic rats [10]; [13]) was 356.2 ± 93.3 mg/dL and the “blood glucose concentration, glucose tolerance test, 60 min” value (STZ diabetic rats [10]; [13]) was 320.9 ± 64.6 mg/dL. For the same compound, the “blood glucose concentration, glucose tolerance test, 120 min” value (STZ diabetic rats [10]; [13]) was 296.6 ± 72.6 mg/dL, the “blood glucose concentration, glucose tolerance test, 0 min” value (STZ diabetic rats [10]; oral administration for 14 days, metformin 0.2 g/kg, flavonoids 4.0 g/kg, extracts 5.0 g/kg) was 341.8 ± 44.8 mg/dL and the “AUC of blood glucose” value (STZ diabetic rats [10]; [14]) was 645.4 ± 122.0 mg·h/dL. The “blood glucose concentration, oral glucose tolerance, 30 min” value (STZ diabetic rats [10]; [14]) was 358.0 ± 77.3 mg/dL and the “blood glucose concentration, oral glucose tolerance, 120 min” value (STZ diabetic rats [10]; [14]) was 279.8 ± 51.6 mg/dL.
